Read-outs that look alike come from different tables or passages of the source.
Columns and labels:
HT29 cells = assay: Inhibition of cell necrosis (CCK8 method), HT29 cells; format: cell-based, human; settings: Homo sapiens, HT-29, 16 h, HT29, Human TNF-α/AT-406/Z-VAD-FMK, 16 hours, CCK8
Outline: (§1)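 HT29 (1.2×10^4/well) and L929 (2.0×10^4/well) cells were pretreated 30 min with compound, 9-point 4-fold series from 10 μM in duplicate. Necrosis was induced with human TNF-α 20 ng/mL, AT-406 […] and Z-VAD-FMK 20 μM for 16 h (HT29), or murine TNF-α 20 ng/mL and Z-VAD-FMK 25 μM for 4-8 h (L929). CCK8 viability; IC50 from dose-effect curve.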

[1] = Rat PK&BBB (pharmacokinetics and brain penetration); format: in vivo, SD rats
Method: (§2) In this assay, the pharmacokinetic characteristics and ability to penetrate the blood-brain barrier of the compounds of the present application were assayed after administration of some of the compounds of the present application to SD rats, CD-1 mice or beagle dogs by single oral administration and intravenous injection.
(§3) 1. Intravenous (IV) injection group: an appropriate amount of the assay compound was weighed, and completely dissolved in an appropriate volume of vehicle. The mixture was stirred, vortexed and/or sonicated. Once a solution was obtained, the vehicle was gradually added to a final volume to reach the target concentration. The solution was vortexed, and sonicated to obtain a homogeneous solution. The solution was filtered through a 0.22 m PVDF membrane.
as §3, with “2. Oral (PO)” for “1. Intravenous (IV) injection”, “solution.” for “solution. The solution was filtered through a 0.22 m PVDF membrane.”
(§4) Meanwhile, the IV group was not fasted and the PO group was fasted overnight (>12 hrs) and given food 2 hrs after drug administration. All animals had free access to water. The dosing regimen and pharmacokinetic sampling regimen are given in Table 10 and Table 11 below, respectively.
Rats were administered according to the above protocol, and blood and brain tissue samples were collected and processed at predetermined time points (collection and processing were performed according to conventional methods in the art).
(§5) The brain was weighed and homogenized by adding 4 times of ultrapure water. Six times volume of acetonitrile was added respectively to the whole blood samples and brain homogenate (20 times volume of acetonitrile was added to the whole blood sample of mouse PK). The mixture was vortexed for 1 min and then centrifuged at 4° C., 4500 rpm for 15 min. According to the instrument response, the supernatant was diluted with diluent and the sample was analyzed by LC/MS.
(§6) Pharmacokinetic parameters were calculated using WinNonlin software. The following pharmacokinetic parameters were calculated if appropriate plasma/whole blood drug concentration-time data were available: CL (clearance); Vd (apparent volume of distribution); T1/2 (elimination half-life time); Cmax (peak concentration); Tmax (time to peak); AUC (area under plasma drug concentration-time curve); MRT (mean retention time); F % (bioavailability).

L929 cells = assay: Inhibition of cell necrosis (CCK8 method), L929 cells; format: cell-based, mouse; settings: Mus musculus, L929, L929, Murine TNF-α/Z-VAD-FMK, 4-8 hours, CCK8
Outline: as §1

[2] = Beagle PK (pharmacokinetics); format: in vivo, beagle dogs; settings: whole blood, Beagle dog
Method: as §2, §3
as §3, with “2. Oral (PO)” for “1. Intravenous (IV) injection”, “solution.” for “solution. The solution was filtered through a 0.22 m PVDF membrane.”
as §4, §5, §6

[3] = Sprague-Dawley, rat, whole blood, iv, 3 mg/kg, IV 3 mg/kg, read-out: Blood drug concentration
[4] = Sprague-Dawley, rat, whole blood, po, 30 mg/kg, PO 30 mg/kg, read-out: Blood drug concentration
[5] = IV 1 mg/kg, read-out: Blood drug concentration
[6] = PO 3 mg/kg, read-out: Blood drug concentration

- AUC(0-inf) ([1]; SD, whole blood, IV 3 mg/kg): 560 ± 62 ng·h/mL
- AUC(0-t) ([1]; SD, whole blood, IV 3 mg/kg): 559 ± 62 ng·h/mL
- Vd ([1]; SD, whole blood, IV 3 mg/kg): 8.24 ± 0.68 L/kg
- half-life ([1]; SD, whole blood, IV 3 mg/kg): 1.06 ± 0.07 h
- clearance ([1]; SD, whole blood, IV 3 mg/kg, read-out: Cl—obs): 90.1 ± 10.7 mL/min/kg
- AUC(0-inf) ([1]; SD, whole blood, PO 30 mg/kg): 967 ± 285 ng·h/mL
- AUC(0-t) ([1]; SD, whole blood, PO 30 mg/kg): 922 ± 357 ng·h/mL
- Cmax ([1]; SD, whole blood, PO 30 mg/kg): 309 ± 103 ng/mL
- Tmax ([1]; SD, whole blood, PO 30 mg/kg): 1 h
- half-life ([1]; SD, whole blood, PO 30 mg/kg): 3.1 ± 0.24 h
- bioavailability ([1]; SD, whole blood, PO 30 mg/kg vs IV 3 mg/kg): 17.3 ± 5.1%
- Kp at 2 h ([1]; Sprague-Dawley, brain / whole blood, PO 30 mg/kg, 2 h after administration, read-out: Brain/blood ratio): 1.49
- concentration at 2 h ([1]; Sprague-Dawley, rat, brain, po, 30 mg/kg, PO 30 mg/kg, 2 h after administration, read-out: Brain concentration): 397 ng/g
- concentration at 0 h [1, 3]: 0 ng/mL
- concentration at 0.083 h ([1]; Sprague-Dawley, rat, whole blood, iv, 3 mg/kg, IV 3 mg/kg, 0.083 hr, read-out: Blood drug concentration): 1170 ± 149 ng/mL
- concentration at 0.25 h [1, 3]: 571 ± 31 ng/mL
- concentration at 0.5 h [1, 3]: 275 ± 24 ng/mL
- concentration at 1 h [1, 3]: 94.7 ± 10.7 ng/mL
- concentration at 2 h ([1]; Sprague-Dawley, rat, whole blood, iv, 3 mg/kg, IV 3 mg/kg, 2 hr, read-out: Blood drug concentration): 25.5 ± 4.7 ng/mL
- concentration at 4 h [1, 3]: 4.13 ± 0.75 ng/mL
- concentration at 7 h [1, 3]: 0.927 ± 0.301 ng/mL
- concentration at 0 h [1, 4]: 0 ng/mL
- concentration at 0.25 h [1, 4]: 85.6 ± 26.6 ng/mL
- concentration at 0.5 h [1, 4]: 239 ± 47 ng/mL
- concentration at 1 h [1, 4]: 309 ± 103 ng/mL
- concentration at 2 h ([1]; Sprague-Dawley, rat, whole blood, po, 30 mg/kg, PO 30 mg/kg, 2 hr, read-out: Blood drug concentration): 165 ± 90 ng/mL
- concentration at 4 h [1, 4]: 68.7 ± 31 ng/mL
- concentration at 7 h [1, 4]: 23.5 ± 5.2 ng/mL
- concentration at 24 h ([1]; Sprague-Dawley, rat, whole blood, po, 30 mg/kg, PO 30 mg/kg, 24 hr, read-out: Blood drug concentration): 0.557 ng/mL
- concentration at 2 h ([1]; Sprague-Dawley, rat, whole blood, po, 30 mg/kg, PO 30 mg/kg, whole blood, 2 h after administration, read-out: Blood drug concentration): 266 ng/mL
- AUC(0-inf) ([2]; IV 1 mg/kg): 699 ± 474 ng·h/mL
- AUC(0-t) ([2]; IV 1 mg/kg): 682 ± 447 ng·h/mL
- Vd ([2]; IV 1 mg/kg): 2.42 ± 0.54 L/kg
- half-life ([2]; IV 1 mg/kg): 1.13 ± 0.65 h
- concentration at 0 hr [2, 5]: 0 ng/mL
- concentration at 0.083 hr ([2]; IV 1 mg/kg, 0.083 hr, read-out: Blood drug concentration): 843 ± 237 ng/mL
- concentration at 0.25 hr [2, 5]: 575 ± 222 ng/mL
- concentration at 0.5 h [2, 5]: 334 ± 229 ng/mL
- concentration at 1 h [2, 5]: 170 ± 148 ng/mL
- concentration at 2 h [2, 5]: 57.9 ± 63.2 ng/mL
- concentration at 4 h [2, 5]: 26 ± 24.1 ng/mL
- concentration at 7 h [2, 5]: 10 ng/mL
- clearance ([2]; IV 1 mg/kg, read-out: Cl—obs): 31.4 ± 17.4 mL/min/kg
- AUC(0-inf) ([2]; PO 3 mg/kg): 4240 ng·h/mL
- AUC(0-t) ([2]; PO 3 mg/kg): 4210 ng·h/mL
- Cmax ([2]; PO 3 mg/kg): 1460 ng/mL
- Tmax ([2]; PO 3 mg/kg): 1 h
- half-life ([2]; PO 3 mg/kg): 4.55 h
- bioavailability ([2]; PO 3 mg/kg vs IV 1 mg/kg): 183%
- concentration at 0 hr [2, 6]: 0 ng/mL
- concentration at 0.25 hr [2, 6]: 469 ng/mL
- concentration at 0.5 h [2, 6]: 1060 ng/mL
- concentration at 1 h [2, 6]: 1460 ng/mL
- concentration at 2 h [2, 6]: 932 ng/mL
- concentration at 4 h [2, 6]: 138 ng/mL
- concentration at 7 h [2, 6]: 82.4 ng/mL
- concentration at 24 h ([2]; PO 3 mg/kg, 24 hr, read-out: Blood drug concentration): 4.41 ng/mL
Compound: O=C(C1CCN(c2cc(-c3cc(OCCCO)ccc3F)ccn2)CC1)N1N=CCC1c1cc(F)cc(F)c1 (racemic) [Example 18, (5-(3,5-difluorophenyl)-4,5-dihydro-1H-pyrazol-1-yl)(1-(4-(2-fluoro-5-(3-hydroxypropoxy)phenyl)pyridin-2-yl)piperidin-4-yl)methanone]
- IC50 (HT29 cells): ≤ 10 nM
- IC50 (L929 cells): 50 to 100 nM
